Assay results published in PubChem BioAssay AID1963848 (Molecular Pharmacology Branch, DTP, NCI, 2024).

Tested on: 379773-124-R-J2-PDC spheroid viability
Test: Anticancer human tumor 379773-124-R-J2-PDC patient-derived endometrial carcinoma cell line growth inhibition [POLQ]
Details: spheroids with HUVEC and MSC; for IC50: curve of first compound; for viability, T/C: stronger effect = lower value
In short: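 Complex spheroid viability model combining PDC tumour cells with endothelial (HUVEC) and MSC stromal cells. Novobiocin, ART-558 or RP6685 were tested singly and in combination with standard and investigational anticancer drugs. Each was titrated in half-log steps from near clinical Cmax, or from 10 microM where Cmax was unknown.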

[1] = second compound 0.0316 µM, first compound 0.00316 µM
[2] = second compound 0.0316 µM, first compound 0.01 µM
[3] = second compound 0.0316 µM, first compound 0.0316 µM
[4] = second compound 0.0316 µM, first compound 0.1 µM
[5] = second compound 0.0316 µM, first compound 0.316 µM
[6] = second compound 0.0316 µM, first compound 1 µM
[7] = second compound 0.1 µM, first compound 0.00316 µM
[8] = second compound 0.1 µM, first compound 0.01 µM
[9] = second compound 0.1 µM, first compound 0.0316 µM
[10] = second compound 0.1 µM, first compound 0.1 µM
[11] = second compound 0.1 µM, first compound 0.316 µM
[12] = second compound 0.1 µM, first compound 1 µM
[13] = second compound 0.316 µM, first compound 0.00316 µM
[14] = second compound 0.316 µM, first compound 0.01 µM
[15] = second compound 0.316 µM, first compound 0.0316 µM
[16] = second compound 0.316 µM, first compound 0.1 µM
[17] = second compound 0.316 µM, first compound 0.316 µM
[18] = second compound 0.316 µM, first compound 1 µM
[19] = second compound 1 µM, first compound 0.00316 µM
[20] = second compound 1 µM, first compound 0.01 µM
[21] = second compound 1 µM, first compound 0.0316 µM
[22] = second compound 1 µM, first compound 0.1 µM
[23] = second compound 1 µM, first compound 0.316 µM
[24] = second compound 1 µM, first compound 1 µM
[25] = second compound 3.16 µM, first compound 0.00316 µM
[26] = second compound 3.16 µM, first compound 0.01 µM
[27] = second compound 3.16 µM, first compound 0.0316 µM
[28] = second compound 3.16 µM, first compound 0.1 µM
[29] = second compound 3.16 µM, first compound 0.316 µM
[30] = second compound 3.16 µM, first compound 1 µM
[31] = second compound 10 µM, first compound 0.00316 µM
[32] = second compound 10 µM, first compound 0.01 µM
[33] = second compound 10 µM, first compound 0.0316 µM
[34] = second compound 10 µM, first compound 0.1 µM
[35] = second compound 10 µM, first compound 0.316 µM
[36] = second compound 10 µM, first compound 1 µM
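Further: spheroids exposed to drugs for seven days before readout.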
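Wherever viability, T/C is given: percent viability relative to DMSO vehicle control taken as 100%.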

CCc1c2c(nc3ccc(O)cc13)-c1cc3c(c(=O)n1C2)COC(=O)[C@]3(O)CC + Cc1cccc(N(C)C(=O)C2C(O)CCN2c2nc(C)cc(C(F)(F)F)c2C#N)c1
IC50 (second compound 0.0316 µM): < 3.16 nM | IC50 (second compound 0.1 µM): < 3.16 nM | IC50 (second compound 0.316 µM): < 3.16 nM | IC50 (second compound 1 µM): < 3.16 nM | IC50 (second compound 3.16 µM): < 3.16 nM | IC50 (second compound 10 µM): < 3.16 nM | viability, T/C [1]: 42.3% | viability, T/C [2]: 11.2% | viability, T/C [3]: 7.22% | viability, T/C [4]: 2.98% | viability, T/C [5]: 1.21% | viability, T/C [6]: 0.39% | viability, T/C [7]: 42.5% | viability, T/C [8]: 11.1% | viability, T/C [9]: 6.54% | viability, T/C [10]: 3.61% | viability, T/C [11]: 2% | viability, T/C [12]: 1.94% | viability, T/C [13]: 50% | viability, T/C [14]: 10.5% | viability, T/C [15]: 6.39% | viability, T/C [16]: 2.26% | viability, T/C [17]: 1.38% | viability, T/C [18]: 0.58% | viability, T/C [19]: 41.5% | viability, T/C [20]: 12.6% | viability, T/C [21]: 7.38% | viability, T/C [22]: 2.95% | viability, T/C [23]: 2.13% | viability, T/C [24]: 0.49% | viability, T/C [25]: 43.7% | viability, T/C [26]: 14.4% | viability, T/C [27]: 7.52% | viability, T/C [28]: 3.81% | viability, T/C [29]: 1.74% | viability, T/C [30]: 0.63% | viability, T/C [31]: 30.8% | viability, T/C [32]: 13.9% | viability, T/C [33]: 7.18% | viability, T/C [34]: 3.13% | viability, T/C [35]: 2.07% | viability, T/C [36]: 1.28%

COc1cccc(OCCCN)c1-c1cc(Nc2cnc(C#N)cn2)n[nH]1 + Cc1cccc(N(C)C(=O)C2C(O)CCN2c2nc(C)cc(C(F)(F)F)c2C#N)c1
IC50 (second compound 0.0316 µM): 6.72 nM | IC50 (second compound 0.1 µM): 6.43 nM | IC50 (second compound 0.316 µM): 6.04 nM | IC50 (second compound 1 µM): 6.31 nM | IC50 (second compound 3.16 µM): 6.03 nM | IC50 (second compound 10 µM): 6.19 nM | viability, T/C [1]: 87.1% | viability, T/C [2]: 30.5% | viability, T/C [3]: 2.41% | viability, T/C [4]: 2.05% | viability, T/C [5]: 1.74% | viability, T/C [6]: 1.59% | viability, T/C [7]: 92.8% | viability, T/C [8]: 23.4% | viability, T/C [9]: 3.34% | viability, T/C [10]: 3.31% | viability, T/C [11]: 2.36% | viability, T/C [12]: 1.82% | viability, T/C [13]: 85.5% | viability, T/C [14]: 22.3% | viability, T/C [15]: 3.19% | viability, T/C [16]: 1.9% | viability, T/C [17]: 1.95% | viability, T/C [18]: 2.25% | viability, T/C [19]: 93.4% | viability, T/C [20]: 21.1% | viability, T/C [21]: 3.23% | viability, T/C [22]: 2.53% | viability, T/C [23]: 2.26% | viability, T/C [24]: 3% | viability, T/C [25]: 84.3% | viability, T/C [26]: 23.2% | viability, T/C [27]: 3.07% | viability, T/C [28]: 2.7% | viability, T/C [29]: 2.36% | viability, T/C [30]: 0.99% | viability, T/C [31]: 88.8% | viability, T/C [32]: 22.1% | viability, T/C [33]: 4.5% | viability, T/C [34]: 4.11% | viability, T/C [35]: 2.59% | viability, T/C [36]: 2.26%

Cn1ncnc1[C@H]1c2n[nH]c(=O)c3cc(F)cc(c23)N[C@@H]1c1ccc(F)cc1 + Cc1cccc(N(C)C(=O)C2C(O)CCN2c2nc(C)cc(C(F)(F)F)c2C#N)c1
IC50 (second compound 0.0316 µM): > 100 nM | IC50 (second compound 0.1 µM): > 100 nM | IC50 (second compound 0.316 µM): > 100 nM | IC50 (second compound 1 µM): > 100 nM | IC50 (second compound 3.16 µM): 90.1 nM | IC50 (second compound 10 µM): > 100 nM | viability, T/C (second compound 0.0316 µM, first compound 0.000316 µM): 79.1% | viability, T/C (second compound 0.0316 µM, first compound 0.001 µM): 78.9% | viability, T/C [1]: 74.5% | viability, T/C [2]: 89.8% | viability, T/C [3]: 67.8% | viability, T/C [4]: 60.8% | viability, T/C (second compound 0.1 µM, first compound 0.000316 µM): 86.3% | viability, T/C (second compound 0.1 µM, first compound 0.001 µM): 77.2% | viability, T/C [7]: 90.2% | viability, T/C [8]: 82.8% | viability, T/C [9]: 61.5% | viability, T/C [10]: 55.6% | viability, T/C (second compound 0.316 µM, first compound 0.000316 µM): 85.7% | viability, T/C (second compound 0.316 µM, first compound 0.001 µM): 79.7% | viability, T/C [13]: 74.2% | viability, T/C [14]: 73.6% | viability, T/C [15]: 82.8% | viability, T/C [16]: 55.5% | viability, T/C (second compound 1 µM, first compound 0.000316 µM): 76.8% | viability, T/C (second compound 1 µM, first compound 0.001 µM): 87.3% | viability, T/C [19]: 75.8% | viability, T/C [20]: 76.7% | viability, T/C [21]: 65.6% | viability, T/C [22]: 60.6% | viability, T/C (second compound 3.16 µM, first compound 0.000316 µM): 74.9% | viability, T/C (second compound 3.16 µM, first compound 0.001 µM): 83.3% | viability, T/C [25]: 67.6% | viability, T/C [26]: 84.2% | viability, T/C [27]: 70.2% | viability, T/C [28]: 47.8% | viability, T/C (second compound 10 µM, first compound 0.000316 µM): 76.8% | viability, T/C (second compound 10 µM, first compound 0.001 µM): 78% | viability, T/C [31]: 74.7% | viability, T/C [32]: 70.5% | viability, T/C [33]: 62.7% | viability, T/C [34]: 54.1%
